Our source for the TGI and GI50 values is PubChem BioAssay (NCI).

The structures appear in SMILES notation.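 Following 48 hours of exposure in 96-well plates, responses at five concentrations were used to interpolate endpoints linearly. GI50 = concentration required for 50% inhibition of growth. TGI marks complete inhibition of growth.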 A value given as a limit tells only on which side of the number the result lay.

Test systems include HCT-116 colon; MOLT-4 leukemia; OVCAR-4 ovarian; RPMI-8226 leukemia; SR leukemia; MCF7 breast; MDA-MB-231 breast; MDA-MB-435; NCI/ADR-RES ovarian; PC-3 prostate.
Experiment in all cases: NCI tumour cell line growth inhibition, 48 h

With `CC1=C2C(c3ccccc3)(c3ccccc3)C3C=CC2(C=N3)N(C(=O)NC2CCCCC2)C1=O` (centres undefined), the TGI in the test with HCT-116 colon came to 29.4 µM; with MOLT-4 leukemia it was 35.8 µM; in the test with OVCAR-4 ovarian it was 31.5 µM; in the test on RPMI-8226 leukemia, 37.8 µM; with SR leukemia, 37.7 µM.
Regarding `CCC1(CN(C)C)CC/C(=C\c2ccc3c(c2)OCO3)C1=O` (centres undefined), the TGI with HCT-116 colon, with MOLT-4 leukemia, with OVCAR-4 ovarian and with RPMI-8226 leukemia was above 100 µM in each case.
Take `COc1ccc(NC(=O)C(=O)C2NC(=S)NC2=O)c(OC)c1` (centres undefined): the TGI in the test on HCT-116 colon, in the test on MOLT-4 leukemia, in the test with OVCAR-4 ovarian and in the test on RPMI-8226 leukemia was above 100 µM throughout.
Consider `C/C(=N\Nc1ccc([N+](=O)[O-])cc1)C(=O)N(C)Nc1ccccc1`, for which the TGI in the test with MOLT-4 leukemia, in the test with OVCAR-4 ovarian, in the test with RPMI-8226 leukemia and in the test with SR leukemia was above 100 µM in each case.
In the case of `Cc1ccc(NC(=O)C(=O)Cc2nc3ccccc3o2)c(C)c1`, the TGI in the test on HCT-116 colon, in the test with OVCAR-4 ovarian and in the test with RPMI-8226 leukemia was above 100 µM each time.
For the compound `CCN(CC)CCCNC(=O)Cc1ccccc1Nc1c(Cl)cccc1Cl`, the TGI was 27.2 µM in the test on HCT-116 colon; 28 µM in the test with MOLT-4 leukemia; 33.1 µM in the test with OVCAR-4 ovarian; 29.1 µM in the test on RPMI-8226 leukemia; 26 µM in the test on SR leukemia.
On to `COc1cc(Br)c(CC2=NCCc3cc(OC)c(OC)cc32)cc1OC`, for which the TGI is above 100 µM in the test with HCT-116 colon; 72.5 µM in the test on MOLT-4 leukemia; above 100 µM in the test on OVCAR-4 ovarian; 73 µM in the test on RPMI-8226 leukemia; above 100 µM in the test on SR leukemia.
For `CCOC(=O)C(C[Si](C)(C)C)P(=O)(OCC)OCC` (centres undefined), the TGI in the test with HCT-116 colon, in the test with MOLT-4 leukemia, in the test on OVCAR-4 ovarian, in the test on RPMI-8226 leukemia and with SR leukemia was above 100 µM each time.
For the compound `O=[N+]([O-])c1ccccc1C1N2CCCCC2[C@@H]2c3[nH]c4ccccc4c3CCN12` (some centres undefined), the TGI was 28.1 µM with MOLT-4 leukemia, 32.3 µM in the test on OVCAR-4 ovarian and 61.3 µM with RPMI-8226 leukemia.
`O=[N+]([O-])c1ccc(Cl)c(C2SCc3nc4ccccc4n32)c1` (centres undefined): the TGI with HCT-116 colon, with MOLT-4 leukemia, in the test with RPMI-8226 leukemia and with SR leukemia was above 100 µM in each case.
As to `Cc1cc(C)c(C(=O)OC(c2ccccc2)C(c2ccccc2)N2CCOCC2)c(C)c1` (centres undefined), the results for the TGI in the test on HCT-116 colon, with MOLT-4 leukemia and in the test on RPMI-8226 leukemia were above 100 µM, above 100 µM and 85.3 µM, respectively.
Take `O=C1C(c2ccccc2)=C(c2ccccc2)C(c2ccc(CCCCCCc3ccc(C4=C(c5ccccc5)C(=O)C(c5ccccc5)=C4c4ccccc4)cc3)cc2)=C1c1ccccc1`: the TGI in the test on HCT-116 colon, in the test on MOLT-4 leukemia, with OVCAR-4 ovarian and in the test on RPMI-8226 leukemia was above 100 µM each time.
For the compound `CCNCCNc1cc(-c2ccc(F)cc2)c(C#N)c2nc3ccccc3n12`, the GI50 was 2240 nM in the test with HCT-116 colon; 3.31 µM in the test with MCF7 breast; 2730 nM in the test with MDA-MB-231 breast; 1780 nM with MDA-MB-435; 6.34 µM in the test on NCI/ADR-RES ovarian; 3.4 µM with OVCAR-4 ovarian. For the same compound, the GI50 was 6.98 µM in the test with PC-3 prostate and 2.86 µM in the test on RPMI-8226 leukemia. For the same compound, the TGI with HCT-116 colon was determined as 4.34 µM; with MCF7 breast, 13.5 µM; in the test with MDA-MB-231 breast it was 7.69 µM; in the test with MDA-MB-435, 3.5 µM; with NCI/ADR-RES ovarian, 25.1 µM; with OVCAR-4 ovarian, 14.5 µM. In addition, the TGI was found to be 19.5 µM with PC-3 prostate and 7.58 µM in the test on RPMI-8226 leukemia.
Consider `CC(C)(C)CC(C)(C)c1ccc(OCCOCCSC(=N)N)cc1`, for which the GI50 with HCT-116 colon was 1500 nM; in the test with MCF7 breast, 1.51 µM; with MDA-MB-231 breast, 1340 nM; with MDA-MB-435, 1510 nM; with MOLT-4 leukemia, 2.35 µM; in the test on NCI/ADR-RES ovarian, 2.59 µM. Further, the figures for the GI50 in the test on OVCAR-4 ovarian and in the test with PC-3 prostate were 1.54 µM and 2.37 µM, respectively. The TGI in the test on HCT-116 colon turned out to be 2.83 µM; in the test on MCF7 breast, 3.22 µM; in the test on MDA-MB-231 breast it was 2.94 µM; with MDA-MB-435, 2.84 µM; in the test on MOLT-4 leukemia, 6.17 µM; with NCI/ADR-RES ovarian, 6.61 µM. In addition, the TGI in the test on OVCAR-4 ovarian amounted to 3.1 µM; with PC-3 prostate it was 7.25 µM.
On to `CC[C@@H]1OC2(C)CC(S(=O)(=O)c3ccccc3)CC1O2` (some centres undefined), for which the TGI in the test with HCT-116 colon, with MOLT-4 leukemia, with OVCAR-4 ovarian, with RPMI-8226 leukemia and in the test on SR leukemia was above 100 µM in each case.
With `Fc1ccc(-c2ncn(C3CCNCC3)c2-c2ccnc(Oc3cccc(F)c3)n2)cc1`, the GI50 in the test with HCT-116 colon is 9300 nM; in the test with MCF7 breast it was 7.38 µM; in the test on MDA-MB-231 breast, 9990 nM; with MDA-MB-435, 6570 nM; in the test on MOLT-4 leukemia, 12.7 µM; with NCI/ADR-RES ovarian, above 23.4 µM. Besides, the GI50 in the test on OVCAR-4 ovarian is 16.8 µM; in the test with PC-3 prostate it was 16.5 µM; with RPMI-8226 leukemia, 24.6 µM. For the same compound, the TGI is above 21.4 µM with HCT-116 colon; above 20.4 µM in the test on MCF7 breast; above 25 µM with MDA-MB-231 breast; above 19.4 µM in the test with MDA-MB-435; above 25 µM in the test on MOLT-4 leukemia; above 25 µM with NCI/ADR-RES ovarian. Besides, the TGI in the test on OVCAR-4 ovarian, in the test with PC-3 prostate and in the test with RPMI-8226 leukemia was above 25 µM in each case.
For the compound `COc1ccc(C(=O)C=C2NCCN2)cc1`, the TGI with HCT-116 colon, with MOLT-4 leukemia, in the test on OVCAR-4 ovarian, in the test with RPMI-8226 leukemia and in the test on SR leukemia was above 100 µM throughout.
As to `COc1ccc(C2S/C(=C\c3ccc(OC)cc3OC)C(=O)N2NC(=O)Cc2ccccc2)cc1` (centres undefined), the TGI in the test on HCT-116 colon, in the test on MOLT-4 leukemia, in the test on OVCAR-4 ovarian, with RPMI-8226 leukemia and in the test with SR leukemia was above 100 µM throughout.
